Entries after “also recorded” stand apart in the source; their conditions may differ.
How the values were obtained:
Format in all cases: in vivo
[1] = system: Cowpea weevil, Callosobruchus maculatus (F.); experiment: Fumigant toxicity, Cowpea weevil; set-up: concentration or dose not given beside the values; conditions: 30 adults
Procedure: Shown in Table 2 is the toxicity of both monoiodinated and diiodinated hydrocarbons to the German and American cockroach and the Cowpea weevil after 24 hours of exposure.

'Brim' soybean = experiment: Soybean growth and root condition in treated soil (Experiment 5)
Procedure: (§1) In this experiment, the nematotoxic properties of ethylene diiodide were compared to that of methyl iodide. The nematicidal efficacies of iodomethane [IM] and ethylene diiodide [EDI] were compared in a greenhouse experiment using field soil infested with Meloidogyne arenaria, Pratylenchus brachyurus, and Paratrichodorus christiei.
(§2) Each compound was added to soil at rates of 100, 200, 300 and 400 mg s/kg of soil. The soil was potted and kept moist for two weeks when it was planted with ‘Brim’ soybean after taking samples for nematological analyses. After eight weeks of growth, the plants were removed from the pots and soil samples taken. Data was collected on weights of fresh roots and shoots, general appearance of roots [root condition index] and root gall formation by M. arenaria. All EDI rates eliminated M. arenaria juveniles [J2] and populations of the other nematodes in the preplant samples; IM reduced J2 numbers by 50-70%, eliminated P. christiei with the 400 mg rate, but had no effect on P. brachyurus. […] The general appearance of roots was improved by EDI at rates ≦300 mg, but MI had no effect on the variable. […] M. arenaria J2 populations in roots were reduced by 60-70% by MI treatments, but the compound had no effect on root populations of P. brachyurus. MI had no effect on J2 populations in the final soil samples, although it suppressed P. christiei, by 50-70%.

Meloidogyne arenaria [2] = experiment: Greenhouse nematicide test, diiodinated C2-C8 hydrocarbons in infested field soil (Experiments 1 and 2)
Heterodera glycines = experiment: as above
Meloidogyne arenaria [3] = experiment: Greenhouse nematicide test, iodomethane vs ethylene diiodide (Experiment 5)
Procedure: as §1, §2

[4] = system: Paratrichodorus christiei; experiment: as above; conditions: all rates (100-400 mg/kg of soil)
Procedure: as §1, §2

Pratylenchus brachyurus = experiment: as above; conditions: rates 100-400 mg/kg of soil
Procedure: as §1, §2

[5] = system: American cockroach, Periplaneta americana (L.); experiment: Fumigant toxicity in sealed glass jar, American cockroach; conditions: 8-36 adult males
[6] = system: German cockroach, Blattella germanica (L.); experiment: Fumigant toxicity in sealed glass jar, German cockroach; conditions: 30-60 adult males
[7] = system: cyst [Heterodera glycines]; experiment: Greenhouse nematicide test, iodinated C1-C3 hydrocarbons (Experiment 4); conditions: 0.4 ml rate
Procedure: In this experiment, the nematicidal properties of low molecular weight iodinated hydrocarbons were investigated. The nematicidal properties of iodinated C1-C3 hydrocarbons were evaluated in greenhouse experiments with field soil infested with root-knot [Meloidogyne arenaria] and cyst [Heterodera glycines] nematodes. lodomethane, di-iodomethane, iodoethane, di-iodoethane, and 1-iodopropane were added to soil at rates of 0.1, 0.2 and 0.4 ml/kg soil.
The treated soil was kept moist for 10 days when soil samples were taken for nematode analysis and ‘Brim’ soybean [Glycine max] planted. Soybeans were allowed to grow for 8 weeks and then were removed from the soil to determine plant growth, root-knot indices and the number of galls generated by M arenaria. […] All compounds except 1-iodopropane increased fresh shoot weight when applied at ≧0.1 ml/kg soil.

[8] = all rates (2.5, 5.0, 7.5, 10 mg/Kg soil)

`ICCI` [1,2-diiodoethane] was tested, and the “% Mortality after 24 h exposure, Cowpea weevil” value [1] was 100%, the Phytotoxicity to soybean ('Brim' soybean; 400 mg) was “phytotoxic” and the “General appearance of roots [root condition index]” value ('Brim' soybean; rates ≦300 mg) was “improved”. For the same molecule, the “M. arenaria juvenile (J2) populations in preplant samples” value (Meloidogyne arenaria [2]; [8]) was “ineffective”, the “M. arenaria J2 numbers in final soil samples” value (Meloidogyne arenaria [2]; final soil samples after soybean growth, rates 2.5-10 mg/kg soil) was “increased directly with C2 dosage” and the “H. glycines J2 populations in preplant samples” value (Heterodera glycines; [8]) was “ineffective”. The “H. glycines J2 numbers in final soil samples” value (Heterodera glycines; final soil samples after soybean growth, rates 2.5-10 mg/kg soil, listed as C2) was “either no change in H. glycines J2 numbers or in increased numbers; also recorded: either no change in Hg J2 numbers or in increased numbers”, the “H. glycines J2 populations in preplant samples” value (Heterodera glycines; rates ≧5.0 mg) was “suppressed” and the “M. arenaria juveniles [J2] in preplant samples” value (Meloidogyne arenaria [3]; all rates (100, 200, 300, 400 mg/kg of soil)) was “eliminated”. For the same molecule, the “Galls in roots of plants from treated soil (M. arenaria)” value (Meloidogyne arenaria [3]; soybean after eight weeks) was “no galls”, the “P. christiei populations in preplant samples” value [4] was “eliminated” and the “P. brachyurus populations in preplant samples” value (Pratylenchus brachyurus) was “eliminated”. The “% Mortality after 1 h exposure, American cockroach” value ([5]; 1 h exposure) was 8%, the “% Mortality after 24 h exposure, American cockroach” value ([5]; 24 h exposure) was 100% and the “% Mortality after 1 h exposure, German cockroach” value ([6]; 1 h exposure) was 40%. The “% Mortality after 24 h exposure, German cockroach” value ([6]; 24 h exposure) was 10% and the “H. glycines J2 populations in soil” value [7] was “eliminated”.
